Source: article PMC4633953, “FR171456 is a specific inhibitor of mammalian NSDHL and yeast Erg26p” (Nature Communications, 2015)
Several values for one entry are separate records, joined by “and”; a condition that tells them apart may be missing. Identical values can stand only once.

Key:
[1] = tested on: HCV replicon subgenomic genotype 1b; experiment: HCV replicon assay in Huh-7 cells (luciferase); settings: Hepatitis C virus; Huh-7 cell-based assay, 48 h
Experimental: (§1) The inhibitor screening was performed in 1,536-well plate with 3,000 cells per well, using Huh-7 cells containing the HCV replicon subgenomic genotype 1b, maintained in DMEM, supplemented with (1 × ) L-glutamine (L-Glue), 1 × non-essential amino acids, 10% heat-inactivated fetal bovine serum (FBS), and 1 mg ml^–1 G418, and incubated with compounds for 48 h at 37 °C, 5% CO2. […] Following compound incubation, Resazurin solution (10 × : 1 μg μl^–1 Resazurin in DMSO) diluted to 1 × was then added to a volume of 0.5 μl to each well and incubated for further 3 h at 37 °C, 5% CO2 to monitor cell viability. Subsequently 15 μl, diluted 1:2 from stock of Steady- Glo (Promega) was added and the luminescence from the HCV replicon was monitored using the Envision (Envision US Lum, using 0.1 s per well measurement time).

[2] = tested on: replicon-carrying Huh-7 cells; experiment: Proliferation/viability of replicon-carrying Huh-7 cells (resazurin); assay type: cell-based, human; settings: replicon assay conditions
Experimental: as §1

[3] = tested on: Fusarium verticillioides NF4901; experiment: Antifungal MIC; assay type: cell-based
[4] = tested on: ergosterol pathway intermediates in C. albicans SC5314; experiment: Focused metabolomics: 13C-labelled ergosterol pathway intermediates in C. albicans; assay type: cell-based; settings: increasing doses
Experimental: For ^13C- labelling studies, the wild type C. albicans strain SC5314 was obtained from ATCC (Manassas, VA) and was cultured at 30 °C in YPD broth (1% yeast extract, 2% peptone, 2% dextrose) or Synthetic Medium (3% glycerol, 0.1% glucose, 65 mM NH4Cl, 1.7 mM NaCl, 7 mM KH2PO4, 1 mM CaCl2, 0.5 mM MgSO4).
Approximately 1.25 × 10^8 C. albicans cells from a saturated YPD culture were inoculated into 100 ml Synthetic Medium (SM) and grown at 30 °C to an OD of 1.0. Cells were washed once in modified SM (25 mM KPO4 pH 7.0, with glucose omitted) and suspended to 5 OD600 units per ml in modified SM.
Labelling reactions were performed in 12-ml glass tubes with PTFE-lined caps (Corning) and containing 1 ml cell suspension (∼6 × 10^7 cells), 10 μl DMSO or 10 μl compound dissolved in DMSO, 12 μl 1M D-Glucose (U^-13C6 glucose), and 10 μl 1 M (1,2^-13C2) sodium acetate (Cambridge Isotope Laboratories, Inc). Before LC-MS analysis, dried lipid extracts were dissolved in 500 μl methanol, vortexed and sonicated for 10 min.
Squalene, ergosterol, lanosterol and zymosterol were quantified using the tandem mass spectrometer API4000 triple quadrupole (AB Sciex) with atmospheric pressure chemical ionization (APCI), interfaced to an Agilent LC.
Cells (∼6 × 10^7) and compounds were preincubated 15 min at 30 °C (without shaking) before the addition of labelled substrates. Labelling was performed at 30 °C with shaking for 4 h. Reactions were stopped by adding 1 ml 30% KOH, 1 ml 100% ethanol, and 0.2 ml 2% pyrogallol. Samples were mixed and then heated at 80 °C for 30 min, then cooled to room temperature. Non-saponifiable lipids were extracted two times in petroleum ether, washed with water, dried under nitrogen gas and stored at −80 °C.
For compound calibration, 2 μM solutions in 0.1% formic acid were directly infused into the mass spectrometer. Ergosterol, lanosterol and zymosterol undergo dehydration and their molecular species are detected as [M+H-H2O]^+ while squalene is detected as [M+H]^+. Supplementary Table 4 lists the multiple reaction monitoring parameters of the sterols and squalene, as well as the ^13C incorporated metabolites. The mass spectrometer source parameters are the following: CUR=40, GS1=60, NC=4.5. TEM=450 CAD=4. A mobile phase of 0.2% formic acid in methanol and isocratic run at 0.4 ml min^−1 was employed to separate the metabolites on a Waters XBridge C18 3.5 μm 2.1 × 50 mm column. The run time was 4.5 min.

Erg26p Arg307His = experiment: In vitro microsomal Erg26p activity assay, mutant; assay type: biochemical, S. cerevisiae; settings: microsome extracts
From the text: (§2) Thus many of the FR171456 resistance mutations were mapped close to the NAD^+ or the substrate-binding site. The presence of three active conservative mutations Arg39Lys, […], and Arg315His in proximity to NAD^+ and substrate-binding site are consistent with FR171456 binding the substrate-binding pocket thus inhibiting the enzymatic activity. To address this more directly, we tested microsome extracts from the erg26Δ haploid yeast strains expressing the Erg26p wild type, Arg39Lys, Arg307His and Arg315His mutants in increasing doses of FR171456 to assess Erg26p mutant activity (Fig. 3b). Whilst Arg39Lys and Arg307His shift the I50 2-fold, Arg315His confers a 20-fold shift in I50. This highlights the importance of the interaction between Arg315 and the carboxyl group of the substrate/inhibitor as one of the most critical in the Erg26p active site (Fig. 3c).
(§3) Wild-type yeast (FL200) microsomes were prepared as follows.

Erg26p Arg315His = experiment: In vitro microsomal Erg26p activity assay, mutant; assay type: biochemical, S. cerevisiae; settings: microsome extracts
From the text: as §2, §3

Erg26p Arg39Lys = experiment: In vitro microsomal Erg26p activity assay, mutant; assay type: biochemical, S. cerevisiae; settings: microsome extracts
From the text: as §2, §3

[5] = tested on: panel of 24 receptors/enzymes; experiment: Pharmacological profiling against a panel of 24 receptors/enzymes; assay type: binding
Erg26p = target: T1, Erg26p (Saccharomyces cerevisiae, UniProt P53199); experiment: In vitro microsomal Erg26p activity assay (GC-MS)
T1 sequence (P53199 1-349): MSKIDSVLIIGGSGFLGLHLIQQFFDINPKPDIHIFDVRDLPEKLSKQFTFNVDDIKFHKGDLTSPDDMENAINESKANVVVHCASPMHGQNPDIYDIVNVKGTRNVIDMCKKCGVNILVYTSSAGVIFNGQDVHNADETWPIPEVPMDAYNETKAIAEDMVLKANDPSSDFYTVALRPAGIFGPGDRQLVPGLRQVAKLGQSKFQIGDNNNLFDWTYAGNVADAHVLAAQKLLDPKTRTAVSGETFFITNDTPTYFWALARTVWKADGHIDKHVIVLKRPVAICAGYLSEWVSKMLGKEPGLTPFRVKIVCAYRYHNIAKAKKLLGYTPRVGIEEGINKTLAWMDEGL
Experimental: To test this hypothesis an in vitro microsomal Erg26p activity assay[30] was used. Erg26p activity was directly assessed in the presence of increasing concentrations of FR171456 (10 nM–0.1 mM) in the presence of 150 μM carboxysterol substrate (Fig. 1c) and the cofactor NAD^+ (0.5 mM) followed by GC-MS detection of the product 4α-methyl-cholest-8,24-dien-3-one.
Wild-type yeast (FL200) microsomes were prepared as follows. Yeast cells were disrupted by glass bead homogenization (0.45-mm diameter) in 100 mM phosphate buffer (pH 7.5) containing 1.5 mM reduced glutathione and 30 mM nicotinamide for 8 min at 0 °C[44]. The cell extract was obtained by centrifugation at 10,000 × g for 20 min. Microsomes were then isolated by centrifuging the cell extract supernatant at 100,000 × g for 90 min. The resulting microsomal pellet was resuspended in 100 mM phosphate buffer (pH 7.5) containing 3 mM reduced glutathione and 20% glycerol (v/v) using an Elvehjem–Potter homogenizer. Yeast microsomes (1.2 mg of protein) were incubated in the presence of 4α-carboxy-4β-methyl-cholest-8,24-dien-3β-ol (50–300 mM) and NAD^+ (0.5 mM) for 35–45 min at 30 °C. After addition of coprostanone (2–6 μg) as internal standard, the reactions were extracted as described previously[12]. The extract was analysed by TLC on silica gel and eluted twice with CH2Cl2. The fraction migrating between a standard of 4-desmethyl-sterone (RF= 0.50) and 4,4-dimethyl-sterone (RF=0.70) was eluted and analysed using a GC-MS spectrometer (Agilent 5973 N).
In the case of inhibition assays, microsomes were incubated for 35–45 min at 30 °C in the presence of 4α-carboxy-4β-methyl-cholest-8,24-dien-3β-ol (50–300 mM) and a range of inhibitor concentration (0.01–100 μM) from which a dose–response curve was obtained allowing the corresponding I50 values to be determined.
The GC-MS spectrometer (Agilent 5973 N) was equipped with an ‘on column' injector and a capillary column (30 × 0.25 mm) coated with DB5 (H2 flow rate of 2 ml min^−1). The temperature program included a 30 °C min^−1 increase from 60 °C to 240 °C, and followed by a 2 °C/min increase from 240 °C to 280 °C. The areas of the GC peaks of coprostanone (tR=1.000) and of the produced 4α-methyl-cholest-8,24-dien-3-one (tR=1.139), corrected from endogenous component of the same tR (1.139) determined in the blank (boiled microsomes), allowed the rate of transformation of 4α-carboxy-4β-methyl-cholest-8,24-dien-3β-ol to be measured. Under these conditions, the estimated limit of detection of the 3βHSD/D activity was 0.1 nmol h^−1 mg^−1.

## C=C(CCC(C)C1CCC2C1(C)CC(O)C13CC14C(=O)CC(O)C(C)(C(=O)O)C4C(=O)CC23O)C(C)C [FR171456, (1R,2aR,3R,5aR,5bS,7aR,8S,9S,11aS,12aR)-1,5b,9-trihydroxy-2a,8-dimethyl-3-((R)-6-methyl-5-methyleneheptan-2-yl)-7,11-dioxohexadecahydrocyclopenta[a]cyclopropa[e]-phenanthrene-8-carboxylic acid]
[1]
  IC50: 6.3 nM
[2]
  concentration not affecting proliferation: > 4 µM
[3]
  MIC: 32 µg/mL and 72 µM
[4]
  effect on 13C-labelled ergosterol: dose-dependent reduction
  effect on 13C-labelled lanosterol: increase
  effect on 13C-labelled zymosterol: dose-dependent reduction
Erg26p Arg307His
  shift in I50 versus wild type: 2 fold
Erg26p Arg315His
  shift in I50 versus wild type: 20 fold
Erg26p Arg39Lys
  shift in I50 versus wild type: 2 fold
[5]
  specificity in receptor/enzyme panel: only one target with significant binding
Erg26p
  Ki: 1350 ± 300 nM
Erg26p; for the carboxysterol substrate
  I50/Km ratio: ~4 × 10^−3
